Patent US9802888B2, “STAT3 inhibitors” (UNIVERSITY OF HAWAII, priority 2013, dated 2017)
Entries after “also recorded” stand apart in the source; their conditions may differ.

Tests used:
Stat1:Stat1 = target: T1, Stat1:Stat1 (Mus musculus, UniProt P42225); test: Stat1 DNA-binding activity, EMSA with MGFe probe, nuclear extracts of EGF-stimulated NIH3T3/hEGFR; assay type: biochemical; settings: for effect on Stat1:Stat1 DNA-binding activity: EMSA, MGFe probe; for disruption of Stat1 DNA-binding activity: concentrations up to 20 μM
T1 construct: endogenous in cells; host or cells: EGF-stimulated NIH3T3/hEGFR (nuclear extract)
T1 sequence (P42225 2-749 limits assumed): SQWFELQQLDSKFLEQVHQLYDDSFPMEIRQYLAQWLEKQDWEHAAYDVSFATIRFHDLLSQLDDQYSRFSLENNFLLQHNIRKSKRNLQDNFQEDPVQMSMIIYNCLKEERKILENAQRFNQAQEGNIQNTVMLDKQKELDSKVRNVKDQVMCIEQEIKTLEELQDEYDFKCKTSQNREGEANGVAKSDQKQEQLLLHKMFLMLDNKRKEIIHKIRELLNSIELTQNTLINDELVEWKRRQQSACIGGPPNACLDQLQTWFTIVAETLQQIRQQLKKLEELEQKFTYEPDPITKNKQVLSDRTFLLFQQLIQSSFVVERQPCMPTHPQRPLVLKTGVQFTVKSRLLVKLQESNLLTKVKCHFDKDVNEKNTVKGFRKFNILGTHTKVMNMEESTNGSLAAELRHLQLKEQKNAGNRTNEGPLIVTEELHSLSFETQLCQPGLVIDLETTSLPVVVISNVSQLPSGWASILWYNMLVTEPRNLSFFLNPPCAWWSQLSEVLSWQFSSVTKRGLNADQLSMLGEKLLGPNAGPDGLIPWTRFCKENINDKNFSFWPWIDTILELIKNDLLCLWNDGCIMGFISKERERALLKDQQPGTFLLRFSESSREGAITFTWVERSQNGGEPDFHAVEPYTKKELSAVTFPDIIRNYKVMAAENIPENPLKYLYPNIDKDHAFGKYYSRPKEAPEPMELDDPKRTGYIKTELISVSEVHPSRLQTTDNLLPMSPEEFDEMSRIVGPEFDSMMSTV
Method: Nuclear extract preparations and electrophoretic mobility shift assay (EMSA) were carried out as previously described. Yu et al., 1995; Turkson et al., Stat3 activation by Src induces specific gene regulation and is required for cell transformation. Mol. Cell. Biol. 18:2545-2552 (1998). The ^32P-labeled oligonucleotide probes used were hSIE (high affinity sis-inducible element from the c-fos gene, m67 variant, 5′-[…]) (SEQ ID NO: 1) that binds Stat1 and Stat3 and MGFe (mammary gland factor element from the bovine β-casein gene promoter, 5′-[…]) (SEQ ID NO: 2) for Stat1 and Stat5 binding. Wagner et al., The SIF binding element confers sis/PDGF inducibility onto the c-fos promoter. EMBO J. 9:4477-4484 (1990); Gouilleux et al., Prolactin and interleukin-2 receptors in T lymphocytes signal through a MGF-STATS-like transcription factor. Endocrinology 136:5700-5708 (1995). Except where indicated, nuclear extracts were pre-incubated with compound for 30 min at room temperature prior to incubation with the radiolabeled probe for 30 min at 30° C. before subjecting to EMSA analysis. Bands corresponding to DNA-binding activities were scanned and quantified for each concentration of compound using ImageQuant and plotted as percent of control (vehicle) against concentration of compound, from which the IC50 values were derived, as previously reported. […] J Biol Chem. 280:32979-32988 (2005).
[…]. Zhang et al. (2012). […]. Siddiquee et al., Selective chemical probe inhibitor of Stat3, identified through structure-based virtual screening, induces antitumor activity, Proc Natl Acad Sci USA. 104:7391-7396 (2007).

[1] = system: pY1068EGFR, pY416Src, pJak2, pShc, pErk1/2, pS473Akt; assay type: cell-based, human; settings: concentrations that inhibit intracellular Stat3 activation (3-10 μM)
Excerpt: (§1) FIG. 2. […] Positions of STATs:DNA complexes or proteins in gel are labeled; control lanes (0) represent nuclear extracts treated with 0.05% DMSO, or nuclear extracts or whole-cell lysates prepared from 0.05% DMSO-treated cells. Values shown in each panel are means plus standard deviations of at least four independent transfections, each performed in triplicate. For each transfection, luciferase activity was normalized to transfection efficiency, with β-Gal activity as an internal control. *-<0.05. Data are representative of 3-4 independent determinations. FIG. 2 (H). […] FIG. 2 (I).
(§2) Turkson et al., Novel peptidomimetic inhibitors of signal transducer and activator of transcription 3 dimerization and biological activity. […] Mol. Cell. […] Mol. Cell. […] Mol. Cell.

[2] = system: Bcl-2, Bcl-xL, Cyclin D1, c-Myc, and Survivin; test: Immunoblotting of Stat3-regulated gene expression; settings: MDA-MB-231 and U251 cells; 24 h-treatment (5 uM)
[3] = system: Stat3-dependent luciferase reporter, pLucTKS3; test: Stat3-dependent luciferase reporter in NIH3T3 co-transfected with v-Src; assay type: cell-based, mouse; settings: 3 or 5 μM
Excerpt: as §1, §2

[4] = system: Stat3-independent luciferase reporter, pLucSRE; test: Stat3-independent luciferase reporter in NIH3T3 co-transfected with v-Src; assay type: cell-based, mouse; settings: similar treatment (3 or 5 μM)
Excerpt: as §1, §2

U251 cells = test: Intracellular levels by LC-MS of cell extracts; assay type: in vitro ADME, human; settings: U251 cells treated once with 5 μM
Excerpt: The intracellular and tissue levels of SH5-07 were studied, following a single treatment.

[5] = In vivo pharmacokinetic analysis, serum and brain tissue levels; set-up: species or system mouse; settings: mice, single dose tail vein injection 3 mg/kg
[6] = system: glioma, breast cancer or pancreatic cancer; test: Treatment of subjects with cancer; assay type: in vivo; settings: intravenous or oral, 0.08 mg/kg to 0.4 mg/kg
pY705Stat3 = pY705Stat3 (Mus musculus, UniProt P42227); test: EGF-induced Stat3 phosphorylation in NIH3T3/hEGFR, immunoblotting; settings: cells pre-treated for 24 h, 10 μM
Chain of pY705Stat3 (P42227 whole entry): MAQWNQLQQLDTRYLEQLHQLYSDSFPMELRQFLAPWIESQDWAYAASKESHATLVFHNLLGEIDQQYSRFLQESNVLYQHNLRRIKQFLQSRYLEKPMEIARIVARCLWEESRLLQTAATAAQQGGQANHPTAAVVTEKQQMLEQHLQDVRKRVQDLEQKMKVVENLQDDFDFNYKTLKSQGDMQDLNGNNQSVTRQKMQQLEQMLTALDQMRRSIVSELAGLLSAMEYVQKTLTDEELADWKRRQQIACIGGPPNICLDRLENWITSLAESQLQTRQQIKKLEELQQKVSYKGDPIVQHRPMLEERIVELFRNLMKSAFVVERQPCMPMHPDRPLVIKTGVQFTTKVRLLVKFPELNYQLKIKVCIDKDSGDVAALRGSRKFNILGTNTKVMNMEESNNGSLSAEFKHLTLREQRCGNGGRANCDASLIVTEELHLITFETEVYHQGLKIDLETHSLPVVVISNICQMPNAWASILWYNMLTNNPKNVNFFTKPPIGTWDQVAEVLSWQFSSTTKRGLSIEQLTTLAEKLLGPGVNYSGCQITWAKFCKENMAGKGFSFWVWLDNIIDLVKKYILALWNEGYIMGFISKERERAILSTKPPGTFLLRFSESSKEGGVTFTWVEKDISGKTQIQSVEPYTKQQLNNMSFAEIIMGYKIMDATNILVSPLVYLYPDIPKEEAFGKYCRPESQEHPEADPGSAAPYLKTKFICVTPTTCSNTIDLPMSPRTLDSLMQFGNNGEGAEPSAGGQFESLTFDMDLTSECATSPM
Excerpt: (§3) Primary antibodies used were anti-Stat3, pY705Stat3, pY416Src, Src, pErk1/2, Erk1/2, EGFR, pEGFR, pJAK2, c-Myc, Bcl-xL, Bcl-2, Survivin, and β-Actin (Cell Signaling, Danvers), and VEGF (Santa Cruz Biotech, Santa Cruz).

EGF receptor and Stat3 = EGF receptor and Stat3 (Mus musculus, UniProt P42227); test: Co-immunoprecipitation of EGF receptor and Stat3 in EGF-stimulated NIH3T3/EGFR; settings: pre-treatment 10 μM for 5 min to 24 h
Chain of EGF receptor and Stat3 (P42227 2-770 limits assumed): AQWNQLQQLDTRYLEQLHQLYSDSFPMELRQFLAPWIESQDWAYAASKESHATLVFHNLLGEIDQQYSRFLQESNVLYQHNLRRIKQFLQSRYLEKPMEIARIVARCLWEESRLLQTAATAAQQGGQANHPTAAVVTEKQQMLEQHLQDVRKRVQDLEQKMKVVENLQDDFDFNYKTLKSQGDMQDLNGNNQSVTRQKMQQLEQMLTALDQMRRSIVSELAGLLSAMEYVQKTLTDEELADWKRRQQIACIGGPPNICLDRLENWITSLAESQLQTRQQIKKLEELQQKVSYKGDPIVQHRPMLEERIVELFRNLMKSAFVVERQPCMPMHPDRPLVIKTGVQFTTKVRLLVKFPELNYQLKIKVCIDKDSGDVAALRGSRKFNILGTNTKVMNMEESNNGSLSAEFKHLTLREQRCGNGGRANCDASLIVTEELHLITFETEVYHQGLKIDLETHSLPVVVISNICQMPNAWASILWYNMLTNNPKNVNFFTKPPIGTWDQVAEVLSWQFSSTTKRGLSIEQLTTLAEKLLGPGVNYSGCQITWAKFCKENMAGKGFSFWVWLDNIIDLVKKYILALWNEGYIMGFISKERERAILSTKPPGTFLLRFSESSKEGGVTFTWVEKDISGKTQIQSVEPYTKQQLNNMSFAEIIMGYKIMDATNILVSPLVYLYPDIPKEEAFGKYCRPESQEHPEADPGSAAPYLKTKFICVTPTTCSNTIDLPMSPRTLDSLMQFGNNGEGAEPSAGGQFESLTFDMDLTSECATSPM
Excerpt: as §3

| disruption of Stat1 DNA-binding activity (Stat1:Stat1) | induction by v-Src of pLucTKS3 luciferase reporter [3] | induction of pLucSRE luciferase reporter [4] | intracellular levels at 1 h (U251 cells) | intracellular levels at 6 h (U251 cells) | intracellular levels at 24 h (U251 cells) | average level in brain tissue at 10 min [5] | average level in brain tissue at 60 min [5] | concentration at 10 min ([5]; mouse, serum, intravenous, read-out: average level in serum at 10 min post-dosing) | concentration at 60 min ([5]; mouse, serum, intravenous, read-out: average level in serum at 60 min) | EGF-induced Stat3 phosphorylation (pY705Stat3) (pY705Stat3) | co-IP between EGF receptor and Stat3 promoted by EGF (EGF receptor and Stat3) | SMILES | effect on Stat1:Stat1 DNA-binding activity (Stat1:Stat1) | effect on phosphorylation of EGFR, Src, Jak2, Shc, ERK1/2, Akt [1] | expression of Stat3-regulated genes [2] | tumor response in subjects [6] |
| --- | --- | --- | --- | --- | --- | --- | --- | --- | --- | --- | --- | --- | --- | --- | --- | --- |
| little or no disruption | – | – | – | – | – | – | – | – | – | – | – | CN(CC(=O)N(Cc1ccc(C2CCCCC2)cc1)c1ccc(C(=O)O)cc1)S(=O)(=O)c1c(F)c(F)c(F)c(F)c1F [SH4-54] | little or no effect; also recorded: minimal effects | little or no effect | down-regulated | – |
| little or no disruption | significantly (p<0.01) inhibited | no attenuating effect | 1,238±181 μM | 27.6 µM | background levels | 7.76 fmole/mg tissue | 8.19 fmole/mg tissue | 13.5 µM | 4.67 µM | inhibited | suppressed | CN(CC(=O)N(Cc1ccc(C2CCCCC2)cc1)c1ccc(C(=O)NO)cc1)S(=O)(=O)c1c(F)c(F)c(F)c(F)c1F [SH5-07] | little or no effect; also recorded: minimal effects | – | down-regulated; also recorded: significantly suppressed | shrinkage of the tumors, or slowing of the progession of tumor growth is observed |
